Results taken from article PMC8539612, “Enzymatic Synthesis of Novel Vitexin Glucosides” (Molecules, 2021).
≈ marks a conversion by molar mass, not a printed value.

Legend:
[1] = Determination of aqueous solubility (vortex 1 h at 25 °C, centrifugation, filtration, HPLC); assay type: physicochemical; details: for solubility at 1 h: thermodynamic from solid; for Aqueous solubility compared with vitexin: at different pH
Method: HPLC was performed with an Agilent® 1100 series HPLC system (Santa Clara, CA, USA) equipped with a gradient pump (Waters 600, Waters, Milford, MA, USA). The stationary phase was a C18 column (Sharpsil H-C18, 5 μm, 4.6 i.d. × 250 mm, Sharpsil, Bei-jing, China), and the mobile phase was 1% acetic acid in water (A) and methanol (B). The elution condition was a linear gradient from 0 min with 40% B to 20 min with 70% B; an isocratic elution from 20 min to 25 min with 70% B; a linear gradient from 25 min with 70% B to 28 min with 40% B; and an isocratic elution from 28 min to 35 min with 40% B. All elutions were performed at a flow rate of 1 mL/min. The sample volume was 10 µL. The detection condition was set at 254 nm.
The aqueous solubility of vitexin and its glucoside derivatives was examined as follows. Each compound was vortexed in double-deionized H2O, PB at pH 6, or pH 8, for 1 h at 25 °C. The mixture was centrifuged at 10,000× g for 30 min at 25 °C. The supernatant was filtered through a 0.2 µm nylon membrane, mixed with an equal volume of methanol, and analyzed by HPLC. The concentration of the tested compounds was determined on the basis of their peak areas, using calibration curves prepared by HPLC analyses of authentic samples.

[2] = parameters: method as in PMID 32292045; details: poor bioavailability; cited from earlier work
[3] = PB (buffer), aqueous buffer, PB at pH 6, 25 °C
[4] = PB (buffer), aqueous buffer, PB at pH 8, 25 °C
[5] = double-deionized water, water, Deionized H2O at pH 7, 25 °C

| Structure (SMILES) | Fold increase in aqueous solubility relative to vitexin in deionized H2O (normalized to 1) ([1]; Deionized H2O at pH 7) | solubility at 1 h [1, 3] | solubility at 1 h [1, 4] | Fold increase in aqueous solubility relative to vitexin in deionized H2O (normalized to 1) ([1]; PB at pH 6) | Fold increase in aqueous solubility relative to vitexin in deionized H2O (normalized to 1) ([1]; PB at pH 8) | solubility at 1 h [1, 5] | Absorption in the gastrointestinal tract [2] | Aqueous solubility compared with vitexin [1] |
| --- | --- | --- | --- | --- | --- | --- | --- | --- |
| O=c1cc(-c2ccc(O)cc2)oc2c([C@@H]3O[C@H](CO)[C@@H](O)[C@H](O)[C@H]3O)c(O)cc(O)c12 [Vitexin, apigenin-8-C-glucoside] | 1 | 7.1 ± 1.2 µg/mL (≈ 16.4 µM) | 157 ± 3.1 µg/mL (≈ 364 µM) | 0.2 | 4.2 | 37.2 ± 2.8 µg/mL (≈ 86 µM) | approximately 5% |  |
| O=c1cc(-c2ccc(OC3OC(CO)C(O)C(O)C3O)cc2)oc2c(C3OC(CO)C(O)C(O)C3O)c(O)cc(O)c12 (stereo not drawn) [Vitexin-4′-O-β-glucoside (1), vitexin-4′-O-β-glucoside] | 25.3 | 943 ± 212 µg/mL (≈ 1590 µM) | 1800 ± 229 µg/mL (≈ 3030 µM) | 25.3 | 48.4 | 941 ± 68.7 µg/mL (≈ 1580 µM) |  | higher than that of vitexin |
| O=c1cc(-c2ccc(O)cc2)oc2c(C3OC(CO)C(O)C(O)C3O)c(O)cc(OC3OC(CO)C(O)C(O)C3O)c12 (stereo not drawn) [Vitexin-5-O-β-glucoside (2), vitexin-5-O-β-glucoside] |  | 444 ± 45 µg/mL (≈ 747 µM) | 767 ± 21.6 µg/mL (≈ 1290 µM) | 11.9 | 20.6 | 735 ± 51.7 µg/mL (≈ 1240 µM) |  | higher than that of vitexin |
